Data set [1] relates to Botrytis cinerea (ATCC #204446). Description: Strawberry in vivo analysis, volatile bioassay on wound-inoculated strawberry. Also noted: species or system Botrytis cinerea on strawberry. To be noted: for phytotoxicity in strawberry in vivo analysis: symptoms of phytotoxicity evaluated daily; for antimicrobial activity against Botrytis cinerea in strawberry in vivo analysis: wound-inoculated, 3 days treatment at 21° C. plus 3 days evaluation. The protocol:
In order to assess the in vivo activity of volatile antimicrobial compounds, a volatile bioassay is developed using strawberry. Fruit (6 to 8) are placed inside a 1 lb clamshell (Packaging Direct Inc.; Product #4341699) with the calyx facing downward. The strawberry fruit are wound-inoculated by pipetting 20 μL of 1×10^6 spore per ml Botrytis cinerea (ATCC #204446) into a wound approximately 5 mm deep and 2.6 mm in width. The clamshell is placed inside a 2.55 L plastic container (Snapware; Model #1098421). A Whatman #1 filter paper (4.25 cm; Cat. No. 1001-042) is placed on a watchglass, which is then placed on top of the closed clamshell lid. For determination of the MIC, test compounds are diluted in acetone, and 400 μl of the solution is added to disks, in duplicate, in a dose dependent manner (for example 0.4 to 50 mg/liter). The acetone is permitted to evaporate for 5 minutes. The plastic containers are then closed and placed for 3 days at 21° C. Clamshells are then removed from the treatment plastic container and placed into separate larger secondary containers for a further 3 days of evaluation at 21° C. During these 3 days, fruit are evaluated daily for incidence and severity of disease and symptoms of phytotoxicity.

The test system is the same in data set [2]. Description: in vitro inhibition assay for volatile antimicrobial compounds (headspace, PDA agar). It is filed as cell-based. To be noted: for MIC / EC50: Botrytis cinerea, ATCC204446, 72 h, volatile headspace exposure, 3 days at 23° C.; for EC50: growth relative to control. The procedure:
(§1) 12-well (6.5 ml volume per well) microtiter plates are used for the in vitro inhibition assay for volatile antimicrobial compounds. A 3-ml volume of full-strength Potato Dextrose Agar (PDA) is added to each well. After cooling, 1 μL of 1×10^5 spores per ml Botrytis cinerea (ATCC #204446) spore suspension is spot pipetted to the agar in the center of the well. Whatman #1 filter disks (1.5 cm; Cat. No. 1001-0155) are placed on the underside of a polyethylene PCR plate sealing film. For determination of the minimum inhibitory concentration (MIC), test compounds are diluted in acetone, in duplicate, and 50 μli of the compound solution is added to disks at concentrations that can vary from 0.001 mg/l to 1142.9 mg/l. The acetone is permitted to evaporate for 5 minutes. The headspace around the Botrytis cinerea inoculum is then sealed inside the well by the film with the adhering disk containing the antimicrobial, anti-decay, anti-spoilage, or pathogen control agent. Plates are inverted to prevent any possibility of the chemical from flaking from the disk and falling onto the inoculated agar.

Another data set deals with Penicillium expansum. Described as above. Type of data set: cell-based. Particulars: volatile headspace exposure. The procedure: [The procedure below names another organism; the source lists this organism under the same test.] as §1
In the next data set the test system is Monilinia fructicola. Described as above. It is filed as cell-based. Particulars: volatile headspace exposure. The protocol: [The procedure below names another organism; the source lists this organism under the same test.] as §1
Another data set deals with Alternaria alternata. The description is as above. It is filed as cell-based. Particulars: volatile headspace exposure. The protocol: [The procedure below names another organism; the source lists this organism under the same test.] as §1
Data set [3] has as its system Escherichia coli (ATCC #25922). Description: in vitro inhibition assay for volatile antimicrobial compounds against bacteria (LB agar). Type of data set: cell-based. Particulars: volatile headspace exposure, 2 days at 23° C. The procedure: 12-well (6.5 ml volume per well) microtiter plates are used for the in vitro inhibition assay for volatile antimicrobial compounds. A 3-ml volume of full-strength L^B Agar is added to each well. After cooling, 15 μL of Escherichia coli (ATCC #25922) adjusted to an optical density of 0.02 to 0.035, and further diluted 1/10 is pipetted to the center of the agar. The plate is tilted to distribute bacteria uniformly. Whatman #1 filter disks (1.5 cm; Cat. No. 1001-0155) are placed on the underside of a polyethylene PCR plate sealing film. […] The acetone is permitted to evaporate for 5 minutes. The headspace around the Escherichia coli inoculum is then sealed inside the well by the film with the adhering disk containing the antimicrobial, anti-decay, anti-spoilage, or pathogen control agent. Plates are inverted, placed over the treated disks and sealed to prevent any of the chemical from flaking from the disk and falling onto the inoculated agar. After 2 days of incubation at 23° C., cultures were evaluated for colony growth relative to control.

The next data set concerns Glomerella cingulata. Description: in vitro inhibition assay for volatile antimicrobial compounds (headspace, PDA agar). To be noted: Colletotrichum gloeosporioides; volatile headspace exposure. It is filed as cell-based.
Data set [4] deals with Botrytis cinerea (ATCC #204446). Description: Grape in vivo analysis, volatile bioassay on inoculated green table grape. Set-up: species or system Botrytis cinerea on green table grape. Particulars: for antimicrobial activity against Botrytis cinerea in grape in vivo analysis: stem wound inoculated, 3 days treatment at 21° C. plus 3 days evaluation; for phytotoxicity in grape in vivo analysis: symptoms of phytotoxicity evaluated daily. The protocol: In order to assess the in vivo activity of volatile antimicrobial compounds, a volatile bioassay is developed using green table grape. Fruit are removed from the rachis, and 16 to 20 fruit are placed inside a 1 dry pint clamshell (Produce Packaging; Product #03231004KZ) with the stem wound facing upwards. The grapes are inoculated by pipetting 20 μL of 1×10^6 spore per ml Botrytis cinerea (ATCC #204446) into the stem wound. The clamshell is placed inside a 2.55 L plastic container (Snapware; Model #1098421). A Whatman #1 filter paper (4.25 cm; Cat. No. 1001-042) is placed on a watchglass, which is then placed on top of the closed clamshell lid. For determination of the MIC, test compounds are diluted in acetone, and 400 μl of the solution is added to disks, in duplicate, in a dose dependent manner (for example 0.4 to 50 mg/liter). The acetone is permitted to evaporate for 5 minutes. The plastic containers are then closed and placed for 3 days at 21° C. Clamshells are then removed from the treatment plastic container and placed into separate larger secondary containers for a further 3 days of evaluation at 21° C. During these 3 days, fruit are evaluated daily for incidence and severity of disease and symptoms of phytotoxicity.

Usually MIC stands for the smallest concentration in the dilution series that meets the test's criterion for growth inhibition. Read a low MIC as inhibition by little substance. By EC50 is commonly meant the concentration at which the effect is half-maximal. Read a low EC50 as an effect from little substance.

In brackets after ≈: the same amount, converted by molar mass.

For the compound `c1ccc2c(c1)COB2OCCOB1OCc2ccccc21` [Compound 1, 1,2-bis(benzo[c][1,2]oxaborol-1(3H)-yloxy)ethane], the “phytotoxicity in strawberry in vivo analysis” value in data set [1] is on record as “no phytotoxicity”. The “antimicrobial activity against Botrytis cinerea in strawberry in vivo analysis” value in data set [1] is “good antimicrobial activity”. Moreover, the MIC worked out at 2.2 µg/mL (≈ 7.48 µM) in data set [2]; 8.9 µg/mL (≈ 30.3 µM) with Penicillium expansum; 35.7 µg/mL (≈ 121 µM) against Monilinia fructicola; 8.9 µg/mL (≈ 30.3 µM) against Alternaria alternata; 143 µg/mL (≈ 486 µM) in the data set with Glomerella cingulata. Also, the EC50 was 0.9 µg/mL (≈ 3.06 µM) in data set [2]; 2.5 µg/mL (≈ 8.51 µM) with Penicillium expansum; 6.8 µg/mL (≈ 23.1 µM) in the data set with Monilinia fructicola; below 0.6 µg/mL in the data set on Alternaria alternata; 11.1 µg/mL (≈ 37.8 µM) in the data set on Glomerella cingulata. The “antimicrobial activity against Escherichia coli (colony growth relative to control)” value in data set [3] is “good antimicrobial activity”. The “antimicrobial activity against Botrytis cinerea in grape in vivo analysis” value in data set [4] is given as “good antimicrobial activity”. In data set [4], the “phytotoxicity in grape in vivo analysis” value is “no phytotoxicity”.

As to `CC(C)(COB1OCc2ccccc21)COB1OCc2ccccc21` [Compound 2, 1,1′-((2,2-dimethylpropane-1,3-diyl)bis(oxy))bis(1,3-dihydrobenzo[c][1,2]oxaborole)], the EC50 with Penicillium expansum came to 12.2 µg/mL (≈ 36.3 µM); in the data set with Alternaria alternata it was 2.3 µg/mL (≈ 6.85 µM); in the data set on Glomerella cingulata, 9.1 µg/mL (≈ 27.1 µM). The values for the MIC with Penicillium expansum, in the data set on Alternaria alternata and against Glomerella cingulata were 71.4 µg/mL (≈ 212 µM), 8.9 µg/mL (≈ 26.5 µM) and 143 µg/mL (≈ 425 µM), respectively.

`Fc1ccc2c(c1)COB2OCCOB1OCc2cc(F)ccc21` [Compound 7, 1,2-bis((5-fluorobenzo[c][1,2]oxaborol-1(3H)-yl)oxy)ethane]: the “phytotoxicity in strawberry in vivo analysis” value in data set [1] is “no phytotoxicity”. Besides, in data set [1], the “antimicrobial activity against Botrytis cinerea in strawberry in vivo analysis” value is “good antimicrobial activity”. Further, the MIC in data set [2] amounted to 0.6 µg/mL (≈ 1.82 µM); against Penicillium expansum, 8.9 µg/mL (≈ 27 µM); in the data set with Monilinia fructicola, 2.2 µg/mL (≈ 6.67 µM); in the data set with Alternaria alternata, 2.2 µg/mL (≈ 6.67 µM). Further, the EC50 in data set [2] is 0.2 µg/mL (≈ 0.606 µM); in the data set on Penicillium expansum, below 0.6 µg/mL; in the data set on Alternaria alternata, 0.3 µg/mL (≈ 0.909 µM). In addition, the “antimicrobial activity against Botrytis cinerea (in words)” value in data set [2] (in vitro analysis, b318 says Botrytis cinerea and/or other pathogens) is given as “excellent activity”. In data set [3], the “antimicrobial activity against Escherichia coli (colony growth relative to control)” value is “good antimicrobial activity”. The “antimicrobial activity against Botrytis cinerea in grape in vivo analysis” value in data set [4] is reported as “good antimicrobial activity”. Moreover, in data set [4], the “phytotoxicity in grape in vivo analysis” value is on record as “no phytotoxicity”.

Turning to `CC(COB1OCc2cc(F)ccc21)OB1OCc2cc(F)ccc21` (centres unmarked) [Compound 11, 1,1′-(propane-1,2-diylbis(oxy))bis(5-fluoro-1,3-dihydrobenzo[c][1,2]oxaborole)], the MIC in data set [2] amounted to 0.6 µg/mL (≈ 1.74 µM); in the data set with Penicillium expansum it was 8.9 µg/mL (≈ 25.9 µM); against Alternaria alternata it was 1.1 µg/mL (≈ 3.2 µM). The EC50 in data set [2] is 0.2 µg/mL (≈ 0.582 µM); in the data set with Penicillium expansum it was below 0.6 µg/mL; in the data set with Monilinia fructicola it was 0.2 µg/mL (≈ 0.582 µM); in the data set with Alternaria alternata, 0.31 µg/mL (≈ 0.901 µM).
